Assay results: ChEMBL document CHEMBL3430912, “GSK Tres Cantos Anti-Kinetoplastid Screening (TCAKS) Data”

How the values were obtained:
Leishmania donovani [1] = test: GSK_TCAKS: pIC50 Leishmania donovani viability assay using fluorescence intensity. Assay plates (1536-well) were prepared by adding 30nL per well of compound. For single shot assay, the final compound concentration was 5uM. […] Briefly, eGFP LdBOB axenic amastigotes were harvested, fixed and counted in a CASY cell counter (Roche-Applied Science). A final concentration of 1.5 * 10^5 cells per well were prepared in amastigote media containing 500 U/mL penicillin/streptomycin (Invitrogen) and 6uL was dispensed to each experimental well using a Multidrop Combi dispenser (Thermo Scientific). 6uL of assay media was dispensed to control columns used as reference for 100% compound response. Following incubation for 72 h at 37C, 5% CO2, 2 uL of resazurin was added to each well at a final concentration of 0.5 mM in phosphate buffered saline (PBS) with IGEPAL (Sigma-Aldrich), 0.05% (v/v).; format: functional, organism-based
Trypanosoma cruzi [2] = test: (§1) GSK_TCAKS: pIC50 H2C9 Imaging: H9c2 Host Cardiomyocytes. […] Cells were then washed once with PBS before infection. T. cruzi trypomastigotes, collected at days 5 to 8 after infection from LLC-MK2 parasite infected cultures, were allowed to swim out for 4h at 37C from a centrifuged pellet (2,500 rpm/10 min/room temperature). Trypomastigotes were then collected and counted in a CASY Cell Counter. Trypomastigotes, in supplemented DMEM, were added to H9c2 cultures in a multiplicity of infection of 1 and incubated for 18 h. Cells were washed once with PBS before incubation of the infected H9c2 monolayer with trypsin (Life-Technologies) to detach cells from the flask. Cells were counted in a CASY Cell Counter using a 150 um capillary and their density set at 5 * 10^4 cells per mL in supplemented assay DMEM. Infected H9c2 were dispensed into 384-well poly-lysine coated assay plates at 50uL per well using a Multidrop Combi dispenser. After seeding them, the plates were incubated at 37C, 5% CO2 for 72h. Cultures were then fixed and stained by addition of 50 uL of a solution containing 8% formaldehyde and 4 uM DRAQ5 DNA dye (BioStatus, UK) per well. […] Five images were collected per well for reliable statistical analysis. Automated image analysis was performed with a script developed on Acapella High Content Imaging and Analysis Software (PerkinElmer). Output: Number of H9c2 Host Cardiomyocytes nuclei to determine drug-related cytotoxicity.; format: functional, organism-based, Rattus norvegicus; conditions: H9c2, 4 h
Trypanosoma cruzi [3] = test: as §1, with “Trypanosoma cruzi” for “H2C9”, “Infected Cells.” for “H9c2 Host Cardiomyocytes.”, “percentage” for “Number”, “infected cells per well as a second infection marker.” for “H9c2 Host Cardiomyocytes nuclei to determine drug-related cytotoxicity.”; format: functional, organism-based, Rattus norvegicus; conditions: H9c2, 4 h
Leishmania donovani [4] = test: (§2) GSK_TCAKS: pIC50 Leishmania donovani Imaging: Infected Macrophages. Assay plates (384-well) were prepared by adding 250nL of compound to each well. For single shot assay, the final compound concentration was 5 uM. […] Automated image analysis was performed with a script developed on Acapella High Content Imaging and Analysis Software (PerkinElmer). Output: Percent of infected macrophage cells were reported for each well.; format: functional, organism-based, Homo sapiens; conditions: THP-1
Leishmania donovani [5] = test: as §2, with “Amastigotes/Macrophages.” for “Infected Macrophages.”, “Average number” for “Percent”, “amastigotes per” for “infected”, “cell” for “cells”; format: functional, organism-based, Homo sapiens; conditions: THP-1
Trypanosoma cruzi [6] = test: as §1, with “Trypanosoma cruzi” for “H2C9”, “Amastigotes/Cell.” for “H9c2 Host Cardiomyocytes.”, “number” for “Number”, “amastigotes per cell as infection level measurement.” for “H9c2 Host Cardiomyocytes nuclei to determine drug-related cytotoxicity.”; format: functional, organism-based, Rattus norvegicus; conditions: H9c2, 4 h
[7] = molecular target: Sterol 14-alpha demethylase (Trypanosoma cruzi (strain CL Brener), UniProt Q7Z1V1); test: GSK_TCAKS: pIC50 CYP51 from Trypanosoma cruzi.; format: functional
Chain of Sterol 14-alpha demethylase (Q7Z1V1 whole entry): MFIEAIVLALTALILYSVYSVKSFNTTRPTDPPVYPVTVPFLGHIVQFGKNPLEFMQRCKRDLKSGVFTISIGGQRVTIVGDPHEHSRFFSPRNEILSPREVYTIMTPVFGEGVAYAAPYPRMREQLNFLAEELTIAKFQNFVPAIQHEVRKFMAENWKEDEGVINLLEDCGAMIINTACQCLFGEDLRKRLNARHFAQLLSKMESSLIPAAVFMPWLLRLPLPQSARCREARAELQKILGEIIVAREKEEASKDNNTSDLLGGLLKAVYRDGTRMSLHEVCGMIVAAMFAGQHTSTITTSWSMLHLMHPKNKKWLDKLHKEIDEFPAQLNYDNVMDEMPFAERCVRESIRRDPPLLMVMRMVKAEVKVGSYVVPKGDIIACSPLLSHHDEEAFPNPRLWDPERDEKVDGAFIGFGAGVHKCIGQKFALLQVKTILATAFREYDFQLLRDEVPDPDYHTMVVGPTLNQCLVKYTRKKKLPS

Trypanosoma cruzi [8] = test: GSK_TCAKS: pIC50 Trypanosoma cruzi viability assay using beta-GAL activity. This assay was run at single shot at 5uM compound concentration per well. The biological reagents consisted of NIH-3T3 host cells and trypomastigotes parasitic cells; both cell types were set to a 3.3 * 10^5 cells/mL dilution in assay DMEM by means of a CASY cell counter device using a 60um capillary. 6 uL of the mixture were dispensed per well (about 1 * 10^3 host-cells and 1 * 10^3 parasites) with a Multidrop Combi dispenser. […] In all wells, the percentage of DMSO never exceeded 0.5%. Plates incubated for four days at 37C, 5% CO2. The substrate used for the assay fluorescence intensity (FLINT) readout was resorufin-beta-D-galactopiranoside (Sigma-Aldrich) at 5uM per well. It was diluted in PBS supplemented with the soft detergent Igepal (Fluka).; format: functional, organism-based, Mus musculus; conditions: Tulahuen, NIH3T3
[9] = system: Trypanosoma brucei brucei; test: GSK_TCAKS: pIC50 Trypanosoma brucei viability assay using luminiscence. Assay plates (1536-well) were prepared. T. brucei cultures were harvested and counted in a CASY cell counter. A parasite suspension was prepared at a final concentration of 5 * 10^4 cells/mL in complete HMI9 medium and 6uL was dispensed to all wells containing compounds using a Multidrop Combi dispenser. 6uL of HMI9 media with 0.4% DMSO were dispensed to control columns. Plates were incubated for 24 h at 37C, 5% CO2 then tempered for 10 min at room temperature. ATP content was quantified by adding 4 uL of CellTiter-Glo Reagent (Promega) according to the manufacturer's instructions. Luminescence was measured using a ViewLux.; format: functional, organism-based; conditions: Lister 427, CASY
[10] = system: Trypanosoma brucei brucei; test: GSK_TCAKS: pIC50 Trypanosoma brucei viability assay using fluorescence intensity. Assay plates (1536-well) were prepared by dispensing 25nL of compound solution per well using an Echo acoustic dispenser (Labcyte).; format: functional, organism-based; conditions: Lister 427, 2 h
Leishmania donovani [11] = test: as §2, with “THP-1 Host” for “Infected”, “THP-1 cell count” for “Percent of infected macrophage cells”; format: functional, organism-based, Homo sapiens
[12] = GSK_TCAKS: pIC50 HepG2 human cell line viability assay using luminiscence. […] Seeding density was checked to ensure that new mono-layers were not more than 50% confluent at the time of harvesting. Cell suspension was added to 500 mL of the same medium at a final density of 1.2 * 10^5 cells/mL. This cell suspension was dispensed (25 uL, 3000 cells per well) into 384-well clear-bottom plates using a Multidrop Combi dispenser. Prior to addition of the cell suspension, the screening compounds (250 nL) were pre-dispensed into the plates with an Echo liquid handler. Plates were incubated for 48 h at 37C, 5% CO2. After incubation, plates equilibrated at room temperature for 30 min before proceeding to develop the luminescent signal. The signal developer, CellTiter-Glo Reagent, was allowed to equilibrate at room temperature for 30 min and added to the plates (25uL per well) using a Multidrop Combi dispenser. Plates were left for 10 min at room temperature for stabilization and then read using a ViewLux.; format: toxicity, cell-based

Compound	IC50 (Leishmania donovani [1]) [nM]	IC50 (Trypanosoma cruzi [2]) [nM]	IC50 (Trypanosoma cruzi [3]) [nM]	IC50 (Leishmania donovani [4]) [nM]	IC50 (Leishmania donovani [5]) [nM]	IC50 (Trypanosoma cruzi [6]) [nM]	IC50 [7] [nM]	IC50 (Trypanosoma cruzi [8]) [nM]	IC50 [9] [nM]	IC50 [10] [nM]	IC50 (Leishmania donovani [11]) [nM]	IC50 at 48 h [12] [nM]
CC(C)n1c(-c2nonc2N)nc2cccc(OCCN3CCCC3)c21	> 50100	31600	15800	31600	20000	25100	39800	10000	794	794	31600	> 100000
Cc1ncsc1CNc1cnc(-c2ccc3c(c2)OCCO3)c(-c2cnn(C)c2)c1	25100	> 50100	39800	15800	12600	20000	7940	12600	200	126	15800	> 100000
Cc1cc(Nc2cc(C3CC3)[nH]n2)nc(N2CCCC2)n1	794	251	100	158	50.1	79.4	> 100000	79.4	63.1	50.1	126	31600
Cc1cc(Nc2cc(C3CC3)[nH]n2)nc(N2CCC[C@H]2C(N)=O)n1	631	126	63.1	200	79.4	20	> 100000	126	63.1	12.6	126	> 100000
CS(=O)(=O)N1CCC(Nc2ncc(Br)c(Nc3cccc(F)c3C(N)=O)n2)CC1	100	158	1000	1580	794	398	> 100000	316	15.8	10	1000	> 100000
NC(=O)c1cc(F)ccc1Nc1nc(N[C@H]2CC[C@H](O)CC2)ncc1Br	1580	501	2000	794	631	794	10000	2510	316	79.4	398	50100
O=C(c1cccc(Nc2ncc(-c3ccc4c(c3)OCO4)cn2)c1)N1CCSC1	1260	1000	251	2000	1000	200	15800	2510	> 39800	12600	12600	10000
NC(=O)c1cc(F)ccc1Nc1nc(N[C@H]2CC[C@H](O)CC2)ncc1Cl	3160	1580	5010	1260	794	1580	31600	3980	631	158	631	> 100000
